According to ChEMBL document CHEMBL1129522, “Inhibitors of acyl-CoA:cholesterol O-acyltransferase. 17. Structure-activity relationships of several series of compounds derived from N-chlorosulfonyl isocyanate” (J Med Chem, 1996):
Values joined by “and” are separate entries in the source; they are usually repeats but may differ in a detail not shown here. Equal entries are not always repeated.

Columns and labels:
[1] = target: T1, Sterol O-acyltransferase 1 (Rattus norvegicus) (UniProt O70536); assay: Chronic in vivo activity was measured by the total cholesterol concentration levels in cholesterol fed rats; type: functional, organism-based
T1 sequence (whole entry): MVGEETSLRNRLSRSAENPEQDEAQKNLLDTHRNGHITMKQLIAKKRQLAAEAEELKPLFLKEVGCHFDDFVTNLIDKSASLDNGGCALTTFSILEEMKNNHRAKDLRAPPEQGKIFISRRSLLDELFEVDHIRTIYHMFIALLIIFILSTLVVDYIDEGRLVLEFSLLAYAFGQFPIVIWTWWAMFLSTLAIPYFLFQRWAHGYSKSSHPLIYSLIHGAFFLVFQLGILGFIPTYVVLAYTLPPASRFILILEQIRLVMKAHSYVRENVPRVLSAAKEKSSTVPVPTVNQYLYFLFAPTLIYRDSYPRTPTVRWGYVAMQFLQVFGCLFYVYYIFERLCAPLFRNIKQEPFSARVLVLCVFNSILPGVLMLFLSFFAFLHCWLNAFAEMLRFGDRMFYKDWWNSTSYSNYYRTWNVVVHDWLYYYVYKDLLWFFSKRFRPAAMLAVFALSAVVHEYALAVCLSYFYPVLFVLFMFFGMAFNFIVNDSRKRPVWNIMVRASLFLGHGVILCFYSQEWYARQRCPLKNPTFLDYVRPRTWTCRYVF

[2] = target: T1, Sterol O-acyltransferase 1 (Rattus norvegicus); assay: Acute in vivo activity was measured by the total plasma cholesterol concentration levels(TC) at dose 3 mg/kg; type: functional, organism-based; design: dose 3 mg/kg
Rattus norvegicus = assay: Acute in vivo activity measured by total plasma cholesterol concentration levels (TC) at 30 mg/kg dose; type: functional
[3] = target: T2, Sterol O-acyltransferase 1 (Rattus norvegicus, UniProt O70536); assay: In vitro inhibitory activity against acyl coenzyme A:cholesterol acyltransferase 1 in microsomes of rat liver
T2 sequence (O70536 whole entry): T1 sequence (whole entry)

[4] = target: T1, Sterol O-acyltransferase 1 (Rattus norvegicus); assay: Chronic in vivo activity was measured by the concentration of high density lipoproteins (HDL) in cholesterol fed rats; type: functional, organism-based

SMILES	Delta TC [1]	Delta TC [2]	Delta TC (Rattus norvegicus) [%]	IC50 [3] [µM]	Delta HDL [4]
CC(C)c1cc(C(C)C)c(NC(=O)NS(=O)(=O)Oc2c(C(C)C)cccc2C(C)C)c(C(C)C)c1	-59%	-51%	-68	23	18%
Cc1cccc(C)c1OS(=O)(=O)NC(=O)Oc1c(C(C)C)cccc1C(C)C	–	-37%	-58	> 50	–
Cc1cc(C(C)(C)C)c(OC(=O)NS(=O)(=O)Oc2ccccc2)c(C(C)(C)C)c1	–	-15%	-65	90	–
CC(C)c1cccc(C(C)C)c1OC(=O)NS(=O)(=O)N(C(C)C)C1CCCCC1	-71%	-49%	–	5.1	188%
CCCCCCCCN(CCCCCCCC)S(=O)(=O)NC(=O)Oc1c(C(C)C)cccc1C(C)C	-80%	-67%	–	58	156%
CC(C)c1cccc(C(C)C)c1OC(=O)NS(=O)(=O)N(C(C)C)C(C)C	-59%	-65%	–	15	82%
CCCCCCCCCCCCCCN(C)S(=O)(=O)NC(=O)Nc1c(C(C)C)cccc1C(C)C	-51%	-65%	–	0.33	19%
CC(C)CCN(CCC(C)C)S(=O)(=O)NC(=O)Nc1c(C(C)C)cccc1C(C)C	-68%	-66%	–	0.42	133%
CC(C)c1cccc(C(C)C)c1OC(=O)NS(=O)(=O)Oc1c(C(C)C)cccc1C(C)C [listing 1 of 2 here]	-64% and -68%	-59% and -54%	–	–	233% and 345%
CCCCCCOS(=O)(=O)NC(=O)Oc1c(C(C)(C)C)cc(C)cc1C(C)(C)C	–	-14%	-56	95	–
CCCCCCCCCCCCCCCCCCOS(=O)(=O)NC(=O)Nc1c(C(C)C)cccc1C(C)C	-38%	-5%	–	14	30%
CCCCCCC(C)OS(=O)(=O)NC(=O)Nc1c(C(C)C)cccc1C(C)C (stereo not drawn)	–	10%	-51	35	–
COc1cc(C(C)(C)C)c(OC(=O)NS(=O)(=O)Oc2c(C(C)C)cccc2C(C)C)c(C(C)(C)C)c1 [listing 1 of 2 here]	-62% and -76%	-42% and -58%	–	–	–
CCCCCCCCN(C)S(=O)(=O)NC(=O)Nc1c(C(C)C)cccc1C(C)C	-64%	-57%	–	3.8	123%
CC(C)c1cccc(C(C)C)c1OC(=O)NS(=O)(=O)N(c1ccccc1)c1ccccc1	-37%	-46%	–	58	320%
CCCCCCCCCCCCCCCCOS(=O)(=O)NC(=O)Oc1c(C(C)C)cccc1C(C)C	–	-42%	-60	10.3	–
CCCCCCN(CCCCCC)S(=O)(=O)NC(=O)Oc1c(C(C)C)cccc1C(C)C	-75%	-74%	–	4.2	144%
CC(C)c1cccc(C(C)C)c1OC(=O)NS(=O)(=O)N(Cc1ccccc1)C(C)C	-69%	-59%	–	12	114%
CCCCN(CCCC)S(=O)(=O)NC(=O)Oc1c(C(C)C)cccc1C(C)C	-69% and -72%	-64% and -47%	–	–	109% and 113%
CC(C)c1cccc(C(C)C)c1NC(=O)NS(=O)(=O)N(C(C)C)C1CCCCC1	-63%	-60%	–	0.36	94%
CCCCCN(CCCCC)S(=O)(=O)NC(=O)Oc1c(C(C)C)cccc1C(C)C	-73%	-66%	–	1.3	166%
CCCCCCOS(=O)(=O)NC(=O)Oc1c(C(C)C)cccc1C(C)C	–	-18%	-52	40	–
CCCCCCCCCCCCOS(=O)(=O)[N-]C(=O)Nc1c(C(C)C)cccc1C(C)C.[Na+]	–	–	-60	5	–
CCCCCCCCCCCCN(CCCCCCCCCCCC)S(=O)(=O)NC(=O)Nc1c(C(C)C)cccc1C(C)C	–	–	-5	69	–
CC(C)c1cccc(C(C)C)c1OC(=O)NS(=O)(=O)Oc1c(F)cccc1F	–	–	9	38	–
CC(C)c1cccc(C(C)C)c1OC(=O)NS(=O)(=O)Oc1c(C(C)C)cccc1C(C)C [listing 2 of 2 here]	–	–	-70	9.4	–
CCCCCCC(C)OC(=O)NS(=O)(=O)Oc1c(C(C)C)cccc1C(C)C (stereo not drawn)	–	–	-32	26	–
CC(C)CN(CC(C)C)S(=O)(=O)NC(=O)Nc1c(C(C)C)cccc1C(C)C	-62%	-61%	–	0.42	122%

SMILES	Delta TC [1]	Delta TC [2]	Delta TC (Rattus norvegicus) [%]	IC50 [3] [µM]	Delta HDL [4]
COc1cccc(OC)c1OC(=O)NS(=O)(=O)Oc1c(C(C)C)cccc1C(C)C	–	–	-61	> 50	–
CC(=O)c1cc(C(C)C)c(OC(=O)NS(=O)(=O)Oc2c(C(C)C)cccc2C(C)C)c(C(C)C)c1	–	–	-16	41.8	–
CCCCCCCCCCCCOC(=O)NS(=O)(=O)Oc1c(C(C)C)cccc1C(C)C	–	1%	-62	13	–
CC(C)c1cccc(C(C)C)c1OS(=O)(=O)NC(=O)OC1[C@@H](C(C)C)CCC[C@H]1C(C)C (stereo partly drawn)	–	-29%	-70	3.6	–
CC(C)c1cc(F)cc(C(C)C)c1OC(=O)NS(=O)(=O)Oc1c(C(C)C)cccc1C(C)C	-52%	–	-72	> 50	143%
CCCCCN(CCCCC)S(=O)(=O)NC(=O)Nc1c(C(C)C)cccc1C(C)C	-67%	-68%	–	0.42	193%
COc1cc(C(C)(C)C)c(OC(=O)NS(=O)(=O)Nc2c(C(C)C)cccc2C(C)C)c(C(C)(C)C)c1	-47%	-29%	–	15	86%
CCOC(=O)NS(=O)(=O)Oc1c(C(C)C)cccc1C(C)C	–	–	-14	> 50	–
Cc1cccc(C(C)(C)C)c1OC(=O)NS(=O)(=O)Oc1c(C(C)C)cccc1C(C)C	–	–	-15	49	–
CC(C)c1cccc(C(C)C)c1NC(=O)NS(=O)(=O)N(CC1CCCO1)CC1CCCO1 (stereo not drawn)	-56%	-45%	–	1.7	123%
CCCCCCN(CCCCCC)S(=O)(=O)NC(=O)Nc1c(C(C)C)cccc1C(C)C	-69%	-63%	–	0.51	207%
CCCCCCCCN(C)S(=O)(=O)NC(=O)Oc1c(C(C)C)cccc1C(C)C	-64%	-57%	–	22	88%
CCC(C)N(C(C)CC)S(=O)(=O)NC(=O)Nc1c(C(C)C)cccc1C(C)C (stereo not drawn)	-62%	-65%	–	0.1	86%
CC(C)c1cccc(C(C)C)c1OS(=O)(=O)NC(=O)Sc1c(C(C)C)cccc1C(C)C	–	–	-17	8.7	–
CC(C)c1cccc(C(C)C)c1OC(=O)N(C)S(=O)(=O)Oc1c(C(C)C)cccc1C(C)C	–	-18%	-64	50	–
CCc1cccc(CC)c1COC(=O)NS(=O)(=O)Oc1c(C(C)C)cccc1C(C)C	–	–	-2	20	–
CC(C)c1cccc(C(C)C)c1OS(=O)(=O)NC(=O)Oc1c(-c2ccccc2)cccc1-c1ccccc1	-38%	–	-46	12	21%
CC(C)c1cccc(C(C)C)c1NC(=O)NS(=O)(=O)N(c1ccccc1)c1ccccc1	-36%	-27%	–	16	170%
CC(C)c1cc(Cl)cc(C(C)C)c1OC(=O)NS(=O)(=O)Oc1c(C(C)C)cccc1C(C)C	–	–	2	42	–
CC(C)c1cccc(C(C)C)c1OS(=O)(=O)NC(=O)Oc1ccc(F)cc1F	–	–	-5	> 50	–
CC(C)c1cccc(C(C)C)c1NC(=O)NS(=O)(=O)N(C)CCc1ccccc1	-45%	-38%	–	1.7	43%
COc1cc(C(C)(C)C)c(OC(=O)NS(=O)(=O)Oc2c(C(C)C)cccc2C(C)C)c(C(C)(C)C)c1 [listing 2 of 2 here]	–	–	-72	4.8	–
CC(C)c1cc([N+](=O)[O-])cc(C(C)C)c1OC(=O)NS(=O)(=O)Oc1c(C(C)C)cccc1C(C)C	–	–	18	> 50	–
CC(C)c1cccc(C(C)C)c1NC(=O)NS(=O)(=O)N(C1CCCCC1)C1CCCCC1	-35%	-60%	–	0.23	92%
CC(C)c1cccc(C(C)C)c1OC(=O)NS(=O)(=O)Oc1c(C(C)(C)C)cccc1C(C)(C)C	–	-46%	-55	50	–
CC(C)c1cccc(C(C)C)c1OC(=O)NS(=O)(=O)Oc1c(C(C)C)cc(O)cc1C(C)C	–	–	-15	> 50	–
CCCCCCCCCCCCOS(=O)(=O)NC(=O)Nc1c(C(C)C)cccc1C(C)C	-55% and -52%	-34% and -53%	–	–	–
